For data set [1] the following is noted: cited from earlier work; for LD50: PO.
A short description of data set [2]: Blood gold pharmacokinetics after i.p. auranofin suspension with ganetespib pre-treatment. Format: in vivo, BALB/c mice. The source says:
As indicated previously, auranofin is a complex of gold triethylphosphine and thioglucose tetraacetate. Gold comprises 29% of auranofin by weight. Auranofin is chemically and metabolically highly unstable in solution. […] Following oral administration of ^195Au auranofin to humans, 25% of administered ^195Au appears in plasma. Further, approximately 40% of absorbed gold distributes into erythrocytes with 60% found in plasma. As a result, and consistent with the extensive literature describing auranofin pharmacokinetics in animals and humans, we characterized the pharmacokinetics of i.p. auranofin in mice by quantifying blood gold concentrations as summarized in Table 4. Peak blood gold concentrations were 12.43 μg/mL in mice receiving auranofin suspension preceded by i.v. ganetespib. […]
The single-dose […] pharmacokinetics of gold were characterized in 36 BALB/c mice following administration of a single 12 mg/kg i.p. suspension dose of auranofin. […] Whole blood aliquots of 500 μL obtained from each of the three animals per time point were assayed using a validated inductively coupled plasma mass spectrometry (ICPMS) method to quantify blood gold concentration. Mean blood gold concentrations were determined for each blood collection time point. […]

Data set [3] has as its system A673 cells. In words: In vivo xenograft mouse model. On the procedure:
To assess the antitumor activity of auranofin (using an alternative delivery approach), ganetespib and the combination treatments in vivo, we generated a xenograft nude mouse model by injecting A673 cells intramuscularly proximal to the tibia. Based on the dose tolerance and pharmacokinetic studies described above, we administered auranofin at a tolerable daily i.p. dose that achieved adequate systemic drug exposure. Auranofin was administered with a dose of 12 mg/kg through an i.p. injection once a day for 5 days per week, and ganetespib was administered with a dose of 150 mg/kg through an i.v. injection once weekly. Mice that grew palpable tumors were randomized into four groups: vehicle, auranofin-only, ganetespib-only, and the combination.
The guidelines adopted by the Institutional Animal Care and Use Committee of the University of Kansas Medical Center (KUMC-IACUC) were followed in all performed procedures. All experimental protocols were approved by KUMC-IACUC. Homozygous athymic nude (Foxn1nu/Foxn1nu) female mice at the age of 4-weeks were purchased from Jackson Laboratories. After one week, one million A673 cells in PBS (pH = 7.3) were injected into mice. The cells were injected intramuscularly proximal to the tibia and treatment started after 15 days of inoculation. Mice developing palpable tumors were divided into 4 arms and treated for up to 18 days: vehicle (20% Cremophor RH40 and 80% D5W iv and 0.5% HPMC K4M ip), auranofin (12 mg/kg i.p. injection 5 days per week), ganetespib (150 mg/kg i.v. injection once weekly), as well as auranofin and ganetespib combined. Mice were evaluated for overall health and weighed every week. When tumor size impeded mobility, mice were sacrificed and necropsies were performed. Tumors were then dissected, measured and processed for analysis. The liver, kidneys, and spleen were also snap frozen in liquid nitrogen or fixed in 10% neutral buffered formalin and paraffin embedded for toxicity studies. Tissues were then subjected to hematoxylin and eosin (H&E) staining and immunohistochemical staining. […]

On the set-up of data set [4]: method as in ref 19 (a number printed in a supplementary file, which may have a reference list of its own: not looked up in the article's list). Particulars: rats, up to 15 mg gold/kg p.o.; cited from earlier work.
The subject of data set [5] is Rhesus monkey lung. Set-up: method as in ref 19 (a number printed in a supplementary file, which may have a reference list of its own: not looked up in the article's list). Particulars: 1.5 x 10^-4M; cited from earlier work.
Details of data set [6]: method as in ref 19 (a number printed in a supplementary file, which may have a reference list of its own: not looked up in the article's list). Particulars: 5 and 10 µg gold/kg for 2 weeks; cited from earlier work.
On the set-up of data set [7]: method as in ref 19 (a number printed in a supplementary file, which may have a reference list of its own: not looked up in the article's list). Conditions: dogs, cited from earlier work.
Data set [8] concerns platelet. Set-up: method as in ref 19 (a number printed in a supplementary file, which may have a reference list of its own: not looked up in the article's list). Conditions: 10 µg/mL; cited from earlier work.
Details of data set [9]: method as in ref 19 (a number printed in a supplementary file, which may have a reference list of its own: not looked up in the article's list). Conditions: cited from earlier work.
The conditions of data set [10]: mice, 18 months, cited from earlier work.

Molecules are shown by their SMILES. Like-named read-outs stand apart in the source and are kept apart here.

As usually defined, the LD50 is the dose at which mortality reaches 50%. As usually defined, the Cmax is the highest concentration seen after dosing. Consider `CC(=O)OC[C@H]1O[C@@H]([S-])[C@H](OC(C)=O)[C@@H](OC(C)=O)[C@@H]1OC(C)=O.CCP(CC)CC.[Au+]` [Auranofin, auranofin], for which the LD50 in data set [1] (Mouse B6C3F1, F) was 187 mg/kg; in data set [1] (Mouse B6C3F1, M) it was 190 mg/kg; in [1] (Mouse CF1, F) it was 225 mg/kg. Also, the “acute oral LD50” value in [1] (adult mice) is reported as 310 mg/kg. Further, the Trough gold concentration in data set [2] (24 hours following the fifth once daily i.p. dose of 12 mg/kg) was determined as 23.9 µg/mL. In [2] (single i.p. 12 mg/kg auranofin suspension, ganetespib pre-treatment), the Cmax amounted to 63.1 µM. Besides, in [3] (auranofin 12 mg/kg i.p. 5 days per week, ganetespib 150 mg/kg i.v. once weekly, p < 0.05), the “survival rate versus control group” value is listed as “significantly increased the survival rate”. The “toxicity or adverse effects in xenograft study” value in [3] (auranofin 12 mg/kg i.p., ganetespib 150 mg/kg i.v.) was “did not show any noticeable toxicity or adverse effects”. Further, the “induction of liver enzyme activity” value in [4] is “failed to induce liver enzyme activity”. For the same molecule, the “anti-human IgE-induced release of histamine and SRS-A” value in data set [5] was “inhibition”. Besides, the “hemagglutinating IgG antibodies to SRBC and antibodies to mouse fibroblasts” value in data set [6] is recorded as “suppressed”. Besides, the “chronic toxicity, anemia in middle and high dose groups” value in data set [7] (oral 0.6, 1.2 and 2.4-6.0 mg/kg/day, 12 months) is “intravascular hemolytic anemia”. Moreover, the subacute toxicity findings result in [7] (oral 1.8, 3.6-7.2 and 6.9-18.0 mg/kg/day, 3 months) is listed as “Dose-related emesis, diarrhea, decreased food consumption”. For the same molecule, in data set [8], the “epinephrine-, ADP-, or collagen-induced platelet aggregation” value is “potent”. Further, the “effect on hemodynamic and electrocardiographic parameters, pulmonary function, CNS activity, gastric mucosa or endocrine system” value in data set [9] was “no significant effect”. In addition, the “instances of tumors above controls” value in data set [10] (oral 1, 3 and 9 mg/kg/day) was “no statistica ll y significant increase”. Further, the tumor findings result in [10] (oral 1, 3 and 6-9 mg/kg/day) is listed as “increase in benign”.

These data come from publication PMC5354814, “In silico and in vitro drug screening identifies new therapeutic approaches for Ewing sarcoma” (Oncotarget, 2016).
